Literature values, collected in patent US20240252511A1, “METHODS OF TREATING DEPRESSION AND ANXIETY” (Woolsey Pharmaceuticals, Inc., priority 2021, published 2024).

Details: in vivo; 1 hydroxy (M3) metabolite

In the case of `O=S(=O)(c1cccc2c(O)nccc12)N1CCCNCC1` [M3, hydroxyfasudil], the half-life is given as “about 8 hours”.
